Experimental data reported in PubChem BioAssay (NCI).
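GI50 is the concentration that inhibits growth by half. TGI: concentration producing complete growth inhibition.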

Assays:
Test in all cases: NCI anticancer screen, dose series, 384-well format
UO-31 renal = system: UO-31 renal
M14 melanoma = system: M14 melanoma
HT29 colon = system: HT29 colon
RPMI-8226 leukemia = system: RPMI-8226 leukemia
K-562 leukemia = system: K-562 leukemia
UACC-257 melanoma = system: UACC-257 melanoma
ACHN renal = system: ACHN renal
SF-539 CNS = system: SF-539 CNS
A498 renal = system: A498 renal
NCI-H23 lung = system: NCI-H23 lung
NCI/ADR-RES ovarian = system: NCI/ADR-RES ovarian
A549 NSCLC = system: A549 NSCLC
NCI-H226 lung = system: NCI-H226 lung
PC-3 prostate = system: PC-3 prostate
786-0 renal = system: 786-0 renal
TK-10 renal = system: TK-10 renal
HCC-2998 colon = system: HCC-2998 colon
MOLT-4 leukemia = system: MOLT-4 leukemia
HL-60(TB) leukemia = system: HL-60(TB) leukemia
NCI-H460 NSCLC = system: NCI-H460 NSCLC
SF-268 CNS = system: SF-268 CNS
HCT-15 colon = system: HCT-15 colon
OVCAR-5 ovarian = system: OVCAR-5 ovarian
HCT-116 colon = system: HCT-116 colon
SK-MEL-28 melanoma = system: SK-MEL-28 melanoma
CCRF-CEM leukemia = system: CCRF-CEM leukemia
U251 glioblastoma = system: U251 glioblastoma
IGROV1 ovarian = system: IGROV1 ovarian
EKVX NSCLC = system: EKVX NSCLC
SNB-19 CNS = system: SNB-19 CNS
NCI-H322M lung = system: NCI-H322M lung
KM12 colon = system: KM12 colon
NCI-H522 lung = system: NCI-H522 lung
HOP-62 NSCLC = system: HOP-62 NSCLC
COLO 205 colon = system: COLO 205 colon
SF-295 CNS = system: SF-295 CNS
SW-620 colon = system: SW-620 colon
SK-MEL-2 melanoma = system: SK-MEL-2 melanoma
SK-MEL-5 melanoma = system: SK-MEL-5 melanoma
OVCAR-4 ovarian = system: OVCAR-4 ovarian
MDA-MB-468 breast = system: MDA-MB-468 breast
CAKI-1 renal = system: CAKI-1 renal
MCF7 breast = system: MCF7 breast
UACC-62 melanoma = system: UACC-62 melanoma
MDA-MB-435 melanoma = system: MDA-MB-435 melanoma
HOP-92 NSCLC = system: HOP-92 NSCLC
SNB-75 CNS = system: SNB-75 CNS

## O=C(NCc1ccncc1)C12CC3CC(C1)CC(c1ccc(Cl)cc1)(C3)C2
UO-31 renal
  GI50: 11.9 µM
  TGI: 24.4 µM
M14 melanoma
  GI50: 17.8 µM
  TGI: 31.7 µM
HT29 colon
  GI50: 12.1 µM
  TGI: 24.8 µM
RPMI-8226 leukemia
  GI50: 3.59 µM
  TGI: 9.73 µM
K-562 leukemia
  GI50: 4.94 µM
  TGI: 16.3 µM
UACC-257 melanoma
  GI50: 13.7 µM
  TGI: 26.7 µM
ACHN renal
  GI50: 15.1 µM
  TGI: 28.6 µM
SF-539 CNS
  GI50: 16 µM
  TGI: 29.7 µM
A498 renal
  GI50: 12.7 µM
  TGI: 25.5 µM
NCI-H23 lung
  GI50: 11.9 µM
  TGI: 24.6 µM
NCI/ADR-RES ovarian
  GI50: 9.62 µM
  TGI: 21.8 µM
A549 NSCLC
  GI50: 13.6 µM
  TGI: 26.7 µM
NCI-H226 lung
  GI50: 14.4 µM
  TGI: 27.6 µM
PC-3 prostate
  GI50: 8.88 µM
  TGI: 21.7 µM
786-0 renal
  GI50: 13.4 µM
  TGI: 26.3 µM
TK-10 renal
  GI50: 14.2 µM
  TGI: 27.4 µM
HCC-2998 colon
  GI50: 11.1 µM
  TGI: 25.2 µM
MOLT-4 leukemia
  GI50: 4.37 µM
  TGI: 14.7 µM
HL-60(TB) leukemia
  GI50: 2750 nM
  TGI: 6.12 µM
NCI-H460 NSCLC
  GI50: 12.7 µM
  TGI: 25.9 µM
SF-268 CNS
  GI50: 14.2 µM
  TGI: 27.3 µM
HCT-15 colon
  GI50: 11.7 µM
  TGI: 24.9 µM
OVCAR-5 ovarian
  GI50: 18 µM
  TGI: 31.9 µM
HCT-116 colon
  GI50: 9.03 µM
  TGI: 22.7 µM
SK-MEL-28 melanoma
  GI50: 17.3 µM
  TGI: 31.1 µM
CCRF-CEM leukemia
  GI50: 6.92 µM
  TGI: 17.6 µM
U251 glioblastoma
  GI50: 15.3 µM
  TGI: 28.8 µM
IGROV1 ovarian
  GI50: 12.1 µM
  TGI: 24.6 µM
EKVX NSCLC
  GI50: 13.2 µM
  TGI: 26 µM
SNB-19 CNS
  GI50: 16.3 µM
  TGI: 30 µM
NCI-H322M lung
  GI50: 17.5 µM
  TGI: 31.5 µM
KM12 colon
  GI50: 13.1 µM
  TGI: 25.9 µM
NCI-H522 lung
  GI50: 11.5 µM
  TGI: 23.9 µM
HOP-62 NSCLC
  GI50: 16.1 µM
  TGI: 29.7 µM
COLO 205 colon
  GI50: 13.2 µM
  TGI: 26.1 µM
SF-295 CNS
  GI50: 14.1 µM
  TGI: 27.2 µM
SW-620 colon
  GI50: 13.7 µM
  TGI: 26.8 µM
SK-MEL-2 melanoma
  GI50: 13 µM
  TGI: 25.7 µM
SK-MEL-5 melanoma
  GI50: 8.68 µM
  TGI: 21.2 µM
OVCAR-4 ovarian
  GI50: 13.6 µM
  TGI: 26.5 µM
MDA-MB-468 breast
  GI50: 5.39 µM
  TGI: 15.1 µM
CAKI-1 renal
  GI50: 14.9 µM
  TGI: 28.3 µM
MCF7 breast
  GI50: 10.4 µM
  TGI: 23.5 µM
UACC-62 melanoma
  GI50: 14 µM
  TGI: 27.1 µM
MDA-MB-435 melanoma
  GI50: 16.5 µM
  TGI: 30.2 µM
HOP-92 NSCLC
  GI50: 10.8 µM
  TGI: 23.1 µM
SNB-75 CNS
  GI50: 15 µM
  TGI: 28.3 µM
